In publication PMC10116495 (Journal of the American Chemical Society, 2023):
Residues, ends and D or L forms follow the SMILES beside them. *: point of attachment. Cbz = O=C(OCc1ccccc1)*

Columns and labels:
NSD2 [1] = assay: MG132, MLN4924 and TAK243 inhibitor assay; format: cell-based; details: U2OS cells, 6 h, 10 μM MG132, 1 μM MLN4924 or 1 μM TAK243
NSD2-PWWP1 = target: T1, NSD2-PWWP1 (Homo sapiens, UniProt O96028); details: previously shown by the authors; cited from earlier work
T1 sequence (O96028 222-286 limits assumed): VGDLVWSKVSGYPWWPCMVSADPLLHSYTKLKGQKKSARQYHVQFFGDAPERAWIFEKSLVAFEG

NSD2 [2] = target: T2, NSD2 (Homo sapiens, UniProt O96028); assay: In-cell western; format: cell-based; details: U2OS cells, ICW
T2 sequence (O96028 1-627 limits assumed): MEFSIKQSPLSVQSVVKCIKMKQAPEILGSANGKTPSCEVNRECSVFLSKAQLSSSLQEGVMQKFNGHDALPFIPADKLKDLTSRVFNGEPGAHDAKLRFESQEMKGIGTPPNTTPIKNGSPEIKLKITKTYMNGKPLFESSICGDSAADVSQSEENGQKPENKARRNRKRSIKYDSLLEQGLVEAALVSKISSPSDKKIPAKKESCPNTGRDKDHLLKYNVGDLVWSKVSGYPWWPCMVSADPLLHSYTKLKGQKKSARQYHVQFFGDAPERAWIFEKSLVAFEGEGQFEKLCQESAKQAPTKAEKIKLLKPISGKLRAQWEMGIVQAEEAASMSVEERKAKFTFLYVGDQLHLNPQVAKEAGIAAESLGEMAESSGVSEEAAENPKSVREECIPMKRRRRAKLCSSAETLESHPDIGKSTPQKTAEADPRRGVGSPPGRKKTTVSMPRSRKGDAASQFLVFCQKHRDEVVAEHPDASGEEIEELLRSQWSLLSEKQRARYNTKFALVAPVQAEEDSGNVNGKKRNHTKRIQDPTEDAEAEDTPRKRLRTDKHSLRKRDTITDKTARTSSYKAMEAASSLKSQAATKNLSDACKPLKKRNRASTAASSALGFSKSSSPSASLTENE

NSD2-long [3] = target: T3, NSD2-long (Homo sapiens, UniProt O96028); assay: Western blot of NSD2 in U2OS cells; format: cell-based; details: 10 μM, without replenishing the compound
T3 sequence (O96028 1-1365): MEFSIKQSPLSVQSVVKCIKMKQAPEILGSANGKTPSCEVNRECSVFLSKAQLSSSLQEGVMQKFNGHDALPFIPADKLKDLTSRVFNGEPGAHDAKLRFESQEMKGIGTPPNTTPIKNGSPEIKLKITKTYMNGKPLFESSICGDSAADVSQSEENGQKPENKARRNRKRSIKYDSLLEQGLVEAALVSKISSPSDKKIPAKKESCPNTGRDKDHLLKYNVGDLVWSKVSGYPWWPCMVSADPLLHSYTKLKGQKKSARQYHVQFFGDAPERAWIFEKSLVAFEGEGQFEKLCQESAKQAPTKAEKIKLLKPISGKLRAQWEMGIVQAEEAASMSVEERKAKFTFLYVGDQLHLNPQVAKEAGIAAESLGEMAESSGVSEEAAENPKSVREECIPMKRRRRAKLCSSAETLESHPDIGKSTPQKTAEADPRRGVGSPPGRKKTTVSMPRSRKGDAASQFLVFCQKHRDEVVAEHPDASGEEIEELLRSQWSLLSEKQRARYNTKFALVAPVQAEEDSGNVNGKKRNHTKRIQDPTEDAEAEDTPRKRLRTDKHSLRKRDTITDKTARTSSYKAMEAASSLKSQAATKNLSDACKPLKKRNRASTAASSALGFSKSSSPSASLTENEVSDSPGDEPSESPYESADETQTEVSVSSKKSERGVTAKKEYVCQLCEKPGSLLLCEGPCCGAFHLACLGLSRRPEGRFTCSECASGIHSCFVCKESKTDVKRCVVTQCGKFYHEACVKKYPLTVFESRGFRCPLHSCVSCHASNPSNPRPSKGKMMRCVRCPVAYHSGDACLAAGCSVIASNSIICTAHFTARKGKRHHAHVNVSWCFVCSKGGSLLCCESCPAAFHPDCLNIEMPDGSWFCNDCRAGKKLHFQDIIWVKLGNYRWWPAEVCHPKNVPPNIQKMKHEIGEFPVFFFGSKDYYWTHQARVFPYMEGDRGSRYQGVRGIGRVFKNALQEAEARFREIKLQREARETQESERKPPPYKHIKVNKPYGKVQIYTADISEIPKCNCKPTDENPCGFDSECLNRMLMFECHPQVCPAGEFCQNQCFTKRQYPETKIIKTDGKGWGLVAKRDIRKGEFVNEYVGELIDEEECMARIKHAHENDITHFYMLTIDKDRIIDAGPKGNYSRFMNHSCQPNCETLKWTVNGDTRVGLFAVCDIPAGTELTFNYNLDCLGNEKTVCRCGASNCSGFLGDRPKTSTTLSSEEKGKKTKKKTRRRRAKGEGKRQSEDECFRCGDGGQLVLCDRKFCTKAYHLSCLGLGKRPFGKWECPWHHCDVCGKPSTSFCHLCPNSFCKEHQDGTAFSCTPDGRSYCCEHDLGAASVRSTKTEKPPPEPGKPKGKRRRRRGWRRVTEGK

[4] = target: T4, NanoLuc-NSD2-PWWP1 / HaloTag-Ubiquitin (Homo sapiens, UniProt O96028); assay: NanoBRET ubiquitination assay; format: cell-based; details: compared to UNC6934 or the vehicle
T4 sequence (O96028 222-286 limits assumed): T1 sequence (O96028 222-286 limits assumed)

NSD2 [5] = target: T2, NSD2; assay: Global proteomics; format: cell-based; details: U2OS cells, 5 μM, 6 h, 7863 quantifiable proteins
NSD1 = NSD1 (Homo sapiens, UniProt Q96L73); assay: Global proteomics and immunoblotting of NSD1 in U2OS cells; format: cell-based; details: 5 μM, 6 h proteomics, confirmed by immunoblotting
NSD3 = target: T5, NSD3 (Homo sapiens, UniProt Q9BZ95); assay: Global proteomics and immunoblotting of NSD3 in U2OS cells; format: cell-based; details: 5 μM, 6 h proteomics, confirmed by immunoblotting
T5 sequence (Q9BZ95 1-1437): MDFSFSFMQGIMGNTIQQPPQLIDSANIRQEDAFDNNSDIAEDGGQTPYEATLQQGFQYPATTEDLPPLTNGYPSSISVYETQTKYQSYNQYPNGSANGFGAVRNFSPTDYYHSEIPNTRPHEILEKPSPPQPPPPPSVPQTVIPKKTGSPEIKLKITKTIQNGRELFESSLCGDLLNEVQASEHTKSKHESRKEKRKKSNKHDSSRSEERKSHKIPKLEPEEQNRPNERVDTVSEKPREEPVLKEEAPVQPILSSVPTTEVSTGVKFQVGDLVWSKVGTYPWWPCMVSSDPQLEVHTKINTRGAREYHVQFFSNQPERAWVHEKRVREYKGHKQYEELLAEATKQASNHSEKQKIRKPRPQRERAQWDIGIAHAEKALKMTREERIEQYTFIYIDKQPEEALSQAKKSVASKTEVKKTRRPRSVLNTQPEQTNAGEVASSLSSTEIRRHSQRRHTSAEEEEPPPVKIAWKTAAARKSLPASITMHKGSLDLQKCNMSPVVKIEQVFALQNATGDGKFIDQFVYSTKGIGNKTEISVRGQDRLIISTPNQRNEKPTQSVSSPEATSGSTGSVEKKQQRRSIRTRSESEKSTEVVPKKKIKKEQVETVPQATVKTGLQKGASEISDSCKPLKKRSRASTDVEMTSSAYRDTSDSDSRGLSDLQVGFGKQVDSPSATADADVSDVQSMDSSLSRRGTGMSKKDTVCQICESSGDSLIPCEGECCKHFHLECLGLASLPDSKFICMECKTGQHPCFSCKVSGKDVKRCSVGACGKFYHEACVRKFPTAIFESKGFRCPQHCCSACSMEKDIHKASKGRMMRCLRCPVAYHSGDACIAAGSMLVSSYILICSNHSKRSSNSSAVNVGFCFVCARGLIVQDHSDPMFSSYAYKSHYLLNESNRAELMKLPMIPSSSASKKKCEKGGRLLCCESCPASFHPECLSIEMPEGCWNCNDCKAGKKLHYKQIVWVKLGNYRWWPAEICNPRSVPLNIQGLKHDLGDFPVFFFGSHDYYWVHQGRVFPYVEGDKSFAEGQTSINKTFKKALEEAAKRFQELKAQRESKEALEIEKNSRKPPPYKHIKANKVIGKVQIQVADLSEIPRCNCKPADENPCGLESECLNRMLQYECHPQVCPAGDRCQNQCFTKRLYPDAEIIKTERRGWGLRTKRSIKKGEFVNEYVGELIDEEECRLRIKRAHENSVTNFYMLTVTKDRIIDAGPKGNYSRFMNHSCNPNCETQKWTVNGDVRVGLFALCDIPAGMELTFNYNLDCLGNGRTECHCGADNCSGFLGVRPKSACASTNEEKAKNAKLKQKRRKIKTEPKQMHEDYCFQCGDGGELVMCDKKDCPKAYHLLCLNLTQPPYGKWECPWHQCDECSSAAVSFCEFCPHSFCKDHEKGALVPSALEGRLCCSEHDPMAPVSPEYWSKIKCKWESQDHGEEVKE

NSD2-long [6] = target: T3, NSD2-long; assay: NSD2 immunoblot in KMS11 cells; format: cell-based; details: read-out: IB: NSD2-long DC50, 1−60 μM, 6 days
H3K36me2 [7] = assay: H3K36me2 immunoblot in KMS11 cells; format: cell-based
H3K36me1 = H3K36me1 immunoblot in KMS11 cells; format: cell-based
H3K36me3 = H3K36me3 immunoblot in KMS11 cells; format: cell-based
NSD2 and H3K36me2 [8] = assay: NSD2 and H3K36me2 immunoblot in MM1S cells; format: cell-based; details: NSD2 E1099K, 10 μM, 6 days
NSD2 and H3K36me2 [9] = assay: NSD2 and H3K36me2 immunoblot in RS411 cells; format: cell-based; details: RS411, NSD2 E1099K, 10 μM, 6 days
KMS11 cells [10] = assay: KMS11 CellTiter-Glo luminescence cell viability assay; format: cell-based; details: up to 30 μM, 8 days
MM1S cells = assay: MM1S dose-response treatment and proliferation assay; format: cell-based; details: increasing concentrations, 8 days, trypan blue cell count
MDA-MB-231 = MDA-MB-231 proliferation assay; format: cell-based; details: 20 μM, 5 days, confluency
U2OS = U2OS proliferation assay; format: cell-based; details: 20 μM, 5 days, confluency
HEK293 = HEK293 proliferation assay; format: cell-based; details: 20 μM, 5 days, confluency
KMS11 cells [11] = assay: Adhesion assay in KMS11 cells; format: cell-based; details: 25 μM, 14 days, compared to control (UNC8587)
NSD family members = details: immunoblot
H3K36me2 [12] = details: KMS11 t(4;14) multiple myeloma cells; cited from earlier work

Chain of NSD1 (Q96L73 whole entry): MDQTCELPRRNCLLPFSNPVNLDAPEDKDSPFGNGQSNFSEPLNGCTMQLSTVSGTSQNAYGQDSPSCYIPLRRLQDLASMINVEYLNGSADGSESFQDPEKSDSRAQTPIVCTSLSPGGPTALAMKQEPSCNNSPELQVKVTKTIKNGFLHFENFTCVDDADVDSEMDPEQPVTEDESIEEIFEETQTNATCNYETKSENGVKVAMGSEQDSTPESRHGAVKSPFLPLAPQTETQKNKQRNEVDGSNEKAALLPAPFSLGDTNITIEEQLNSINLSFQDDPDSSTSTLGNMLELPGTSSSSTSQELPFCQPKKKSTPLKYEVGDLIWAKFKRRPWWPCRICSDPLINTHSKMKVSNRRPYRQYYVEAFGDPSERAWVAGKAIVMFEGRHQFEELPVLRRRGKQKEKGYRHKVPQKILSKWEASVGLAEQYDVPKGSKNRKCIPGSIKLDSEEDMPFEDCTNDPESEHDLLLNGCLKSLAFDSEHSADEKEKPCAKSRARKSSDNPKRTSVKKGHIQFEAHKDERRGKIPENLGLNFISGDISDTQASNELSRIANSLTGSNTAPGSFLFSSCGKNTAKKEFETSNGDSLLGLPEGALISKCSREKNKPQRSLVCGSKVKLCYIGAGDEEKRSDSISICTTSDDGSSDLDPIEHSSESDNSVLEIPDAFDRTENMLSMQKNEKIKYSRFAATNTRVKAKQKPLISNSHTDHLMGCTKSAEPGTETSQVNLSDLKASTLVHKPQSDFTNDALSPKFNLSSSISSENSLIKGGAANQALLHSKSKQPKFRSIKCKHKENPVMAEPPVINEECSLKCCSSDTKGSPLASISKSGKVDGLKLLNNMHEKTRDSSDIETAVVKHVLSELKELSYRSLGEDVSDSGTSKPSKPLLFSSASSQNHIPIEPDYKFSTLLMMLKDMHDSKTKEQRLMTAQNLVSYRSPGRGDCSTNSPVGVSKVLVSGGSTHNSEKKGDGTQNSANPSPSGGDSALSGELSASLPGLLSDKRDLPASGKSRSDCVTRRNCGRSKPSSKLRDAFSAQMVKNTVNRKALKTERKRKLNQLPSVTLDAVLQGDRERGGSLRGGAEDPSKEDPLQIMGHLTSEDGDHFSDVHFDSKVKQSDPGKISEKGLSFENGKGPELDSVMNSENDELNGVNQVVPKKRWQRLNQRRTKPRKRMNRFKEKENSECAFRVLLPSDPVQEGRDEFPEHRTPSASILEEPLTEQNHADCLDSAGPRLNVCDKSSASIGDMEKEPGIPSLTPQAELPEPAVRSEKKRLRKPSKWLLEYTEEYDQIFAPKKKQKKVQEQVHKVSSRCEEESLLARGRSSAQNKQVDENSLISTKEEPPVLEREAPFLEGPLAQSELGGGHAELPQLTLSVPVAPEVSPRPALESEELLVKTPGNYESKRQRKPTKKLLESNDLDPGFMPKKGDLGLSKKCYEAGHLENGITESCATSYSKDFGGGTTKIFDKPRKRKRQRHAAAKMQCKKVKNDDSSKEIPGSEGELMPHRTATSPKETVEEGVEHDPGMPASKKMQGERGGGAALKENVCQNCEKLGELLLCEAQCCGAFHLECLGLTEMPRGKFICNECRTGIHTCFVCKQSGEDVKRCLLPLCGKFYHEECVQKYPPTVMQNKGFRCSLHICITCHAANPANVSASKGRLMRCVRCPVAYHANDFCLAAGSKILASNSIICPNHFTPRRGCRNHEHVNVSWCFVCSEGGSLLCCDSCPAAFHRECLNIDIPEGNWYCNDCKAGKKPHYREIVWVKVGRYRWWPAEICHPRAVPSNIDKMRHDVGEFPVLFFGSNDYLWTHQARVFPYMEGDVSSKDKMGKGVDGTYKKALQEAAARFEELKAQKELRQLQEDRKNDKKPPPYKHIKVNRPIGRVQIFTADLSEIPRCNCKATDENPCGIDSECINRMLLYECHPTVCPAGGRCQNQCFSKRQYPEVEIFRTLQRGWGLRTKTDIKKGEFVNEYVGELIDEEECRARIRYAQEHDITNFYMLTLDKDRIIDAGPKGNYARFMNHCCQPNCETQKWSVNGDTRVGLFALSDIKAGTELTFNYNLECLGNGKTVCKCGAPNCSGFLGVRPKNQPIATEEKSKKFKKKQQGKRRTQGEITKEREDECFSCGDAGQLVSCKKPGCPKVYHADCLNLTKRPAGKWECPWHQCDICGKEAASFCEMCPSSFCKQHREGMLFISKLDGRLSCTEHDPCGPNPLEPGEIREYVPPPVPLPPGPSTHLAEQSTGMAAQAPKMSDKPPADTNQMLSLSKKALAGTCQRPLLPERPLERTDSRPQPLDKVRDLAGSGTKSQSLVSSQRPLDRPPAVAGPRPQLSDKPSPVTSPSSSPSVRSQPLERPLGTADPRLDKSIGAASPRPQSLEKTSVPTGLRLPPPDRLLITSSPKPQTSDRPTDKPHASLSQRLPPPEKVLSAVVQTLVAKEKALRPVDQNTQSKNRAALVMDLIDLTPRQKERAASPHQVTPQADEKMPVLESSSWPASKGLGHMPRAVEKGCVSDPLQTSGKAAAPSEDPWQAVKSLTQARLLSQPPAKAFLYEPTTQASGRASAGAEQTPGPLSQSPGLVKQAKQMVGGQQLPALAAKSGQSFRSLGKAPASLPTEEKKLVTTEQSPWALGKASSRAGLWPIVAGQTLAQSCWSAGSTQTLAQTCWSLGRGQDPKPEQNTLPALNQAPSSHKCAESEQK

## NS(=O)(=O)OC[C@@H]1C[C@@H](n2ccc3c(N[C@H]4CCc5ccccc54)ncnc32)C[C@@H]1O [MLN4924]
NSD2 [1]
  effect of inhibitor on UNC8153-mediated NSD2 degradation: prevented NSD2 degradation

## CC(C)C[C@@H](C=O)NC(=O)[C@H](CC(C)C)NC(=O)[C@H](CC(C)C)NC(=O)OCc1ccccc1 [MG132] (Cbz-Leu-Leu-Leu-aldehyde)
NSD2 [1]
  effect of inhibitor on UNC8153-mediated NSD2 degradation: completely ablates NSD2 degradation

## NS(=O)(=O)OC[C@H]1C[C@@H](Nc2ccnc3cc(-c4cccc(SC(F)(F)F)c4)nn23)[C@H](O)[C@@H]1O [TAK243]
NSD2 [1]
  effect of inhibitor on UNC8153-mediated NSD2 degradation: prevented NSD2 degradation

## O=C(CCCC[C@@H]1SC[C@@H]2NC(=O)N[C@@H]21)NCCOCCOCCOCCOCCOCCOCCOCCOCCOCCOCCOCCNC(=O)c1ccc(NC(=O)c2ccc(CN(C(=O)c3ccc4c(c3)OCC(=O)N4)C3CC3)cc2)cc1 [UNC7096]
NSD2-PWWP1
  binding to NSD2 (in words): maintains binding to NSD2

## NCCCCCCNC(=O)c1ccc(NC(=O)c2ccc(CN(C(=O)c3ccc4c(c3)OCC(=O)N4)C3CC3)cc2)cc1 [UNC8153]
NSD2 [2]; 3 and 10 μM
  NSD2 degradation 30 min after compound treatment: ~ 40%
NSD2 [2]; confirmed by immunoblotting
  hook effect in NSD2 reduction: a hook effect occurs at high concentrations
NSD2-long [3]
  extent of degradation of NSD2-long 96 h after a single treatment: above 60%
[4]
  BRET signal between HaloTag-ubiquitin and NanoLuc-NSD2-PWWP1: increased BRET signals
NSD2 [5]
  selectivity of NSD2 degradation within the measurable proteome: NSD2 was selectively degraded
NSD1
  degradation of NSD1: not degraded
NSD3
  degradation of NSD3: not degraded
NSD2-long [6]
  DC50: 3.41 µM
H3K36me2 [7]; 20 μM, 2−8 days, loss after 6 days, control 8 days
  H3K36me2 levels, time course: Significant loss of the H3K36me2 mark
H3K36me2 [7]; 1−60 μM, 6 days
  H3K36me2 levels, dose response: dose-dependent reduction of the H3K36me2 mark
H3K36me1
  H3K36me1 level: increase in H3K36 monomethylation
H3K36me3
  H3K36me3 level: decreased slightly
NSD2 and H3K36me2 [8]
  NSD2 and H3K36me2 modulation in MM1S cells: similarly responsive
NSD2 and H3K36me2 [9]
  NSD2 and H3K36me2 modulation in RS411 cells: similarly responsive
KMS11 cells [10]
  proliferation / cell viability of KMS11 cells: did not result in a significant change in proliferation
MM1S cells
  proliferation of MM1S cells: mild antiproliferative effect
MDA-MB-231
  proliferative potential of MDA-MB-231 cells: no significant changes in proliferative potential
U2OS
  proliferative potential of U2OS cells: no significant changes in proliferative potential
HEK293
  proliferative potential of HEK293 cells: no significant changes in proliferative potential
KMS11 cells [11]
  cell adhesion to Matrigel: Significant antiadhesive effects
NSD family members
  selectivity for NSD2 over other NSD family members in MM1S cells: selectively degrades NSD2 over other NSD family members

## O=C1COc2cc(C(=O)N(Cc3ccc(C(=O)Nc4ccncn4)cc3)C3CC3)ccc2N1 [UNC6934]
H3K36me2 [12]
  global H3K36me2 levels in KMS11 cells: remain unaltered
